Molecules are shown by their SMILES.

For assay [1], the target named is T1, ACL (Homo sapiens (Human), UniProt P53396). The assay is described as follows: ACLY-MDH Coupled Assay.
Target sequence in this assay (P53396 whole entry, species assumed): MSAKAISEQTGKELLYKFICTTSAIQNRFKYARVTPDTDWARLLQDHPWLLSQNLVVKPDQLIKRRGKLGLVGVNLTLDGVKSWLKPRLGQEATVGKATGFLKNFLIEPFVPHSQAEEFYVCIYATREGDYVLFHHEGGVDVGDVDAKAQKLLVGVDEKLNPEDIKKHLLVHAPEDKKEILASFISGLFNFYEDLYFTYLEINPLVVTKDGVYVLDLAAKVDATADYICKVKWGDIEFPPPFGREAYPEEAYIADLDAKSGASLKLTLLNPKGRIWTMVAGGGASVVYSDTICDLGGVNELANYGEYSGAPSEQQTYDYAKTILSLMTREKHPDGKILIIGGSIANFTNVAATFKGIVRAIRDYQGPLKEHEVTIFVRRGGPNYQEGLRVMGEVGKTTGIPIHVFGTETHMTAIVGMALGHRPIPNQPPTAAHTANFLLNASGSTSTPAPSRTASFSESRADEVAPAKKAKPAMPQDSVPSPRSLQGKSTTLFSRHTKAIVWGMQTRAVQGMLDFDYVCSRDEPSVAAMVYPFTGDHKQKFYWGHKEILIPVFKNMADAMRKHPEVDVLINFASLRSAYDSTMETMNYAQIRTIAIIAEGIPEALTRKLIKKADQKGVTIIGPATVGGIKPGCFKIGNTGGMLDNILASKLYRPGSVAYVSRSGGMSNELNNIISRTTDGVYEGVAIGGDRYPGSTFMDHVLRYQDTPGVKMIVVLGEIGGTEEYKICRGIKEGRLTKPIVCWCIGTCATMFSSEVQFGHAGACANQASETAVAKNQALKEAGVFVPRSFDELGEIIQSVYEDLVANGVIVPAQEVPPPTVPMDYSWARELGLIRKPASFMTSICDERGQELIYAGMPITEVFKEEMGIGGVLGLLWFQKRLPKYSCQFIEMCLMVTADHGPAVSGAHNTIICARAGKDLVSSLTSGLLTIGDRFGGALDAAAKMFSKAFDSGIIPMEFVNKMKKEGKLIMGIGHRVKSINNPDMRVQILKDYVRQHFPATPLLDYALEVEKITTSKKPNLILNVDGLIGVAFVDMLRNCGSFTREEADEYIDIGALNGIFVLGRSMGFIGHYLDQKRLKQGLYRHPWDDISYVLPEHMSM
Procedure: Compounds of the present invention were evaluated in an ACLY Coupled Assay.
The assay protocol for the Coupled Assay (below) was followed:
b) Add 1 μL cpds to 96 assay plate, Test cpd conc: 100/30/10 μM top dose, 3 folds dilution, 10+0+control (control: buffer without ACL+DMSO) points, 1000 rpm for 1 min, incubation at 25° C. for 60 min
The target of assay [2] is T1, ACL. The assay is described as follows: ADP-Glo Assay.
Target sequence in this assay (P53396 other isoform, or with tags, fused parts or gaps isoform P53396-2): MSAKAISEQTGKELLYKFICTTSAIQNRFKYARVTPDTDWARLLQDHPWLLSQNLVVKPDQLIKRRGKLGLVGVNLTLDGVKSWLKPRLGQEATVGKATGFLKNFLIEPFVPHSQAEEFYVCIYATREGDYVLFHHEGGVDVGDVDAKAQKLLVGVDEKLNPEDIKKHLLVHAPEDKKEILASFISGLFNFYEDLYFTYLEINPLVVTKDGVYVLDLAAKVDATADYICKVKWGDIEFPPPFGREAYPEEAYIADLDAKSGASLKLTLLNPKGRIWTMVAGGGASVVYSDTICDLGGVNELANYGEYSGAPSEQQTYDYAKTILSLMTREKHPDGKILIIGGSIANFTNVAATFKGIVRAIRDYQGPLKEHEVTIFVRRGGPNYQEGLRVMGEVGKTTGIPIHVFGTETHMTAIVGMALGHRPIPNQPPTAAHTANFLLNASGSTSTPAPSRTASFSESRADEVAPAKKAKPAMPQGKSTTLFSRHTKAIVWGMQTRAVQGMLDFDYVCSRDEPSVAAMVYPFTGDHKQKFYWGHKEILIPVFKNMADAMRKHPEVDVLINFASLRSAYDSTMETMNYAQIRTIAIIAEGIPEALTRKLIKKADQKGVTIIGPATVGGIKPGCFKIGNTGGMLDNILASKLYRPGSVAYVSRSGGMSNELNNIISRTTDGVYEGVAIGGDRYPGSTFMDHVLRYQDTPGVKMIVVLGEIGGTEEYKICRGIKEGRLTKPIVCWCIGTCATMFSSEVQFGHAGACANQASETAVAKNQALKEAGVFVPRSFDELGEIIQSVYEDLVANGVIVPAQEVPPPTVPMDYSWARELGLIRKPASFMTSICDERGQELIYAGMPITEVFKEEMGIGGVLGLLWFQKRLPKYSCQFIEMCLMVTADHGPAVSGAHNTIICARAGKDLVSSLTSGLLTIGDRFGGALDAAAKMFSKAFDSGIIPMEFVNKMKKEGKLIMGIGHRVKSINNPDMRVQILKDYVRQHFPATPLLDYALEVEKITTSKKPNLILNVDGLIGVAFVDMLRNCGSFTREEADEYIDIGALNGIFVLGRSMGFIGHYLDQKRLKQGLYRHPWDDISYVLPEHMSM
Where [3] appears, read: read-out: ACL-MDH Coupled Assay (IC50), 8 nM ACL, 60 μM CoA Na2, 85 μM Citrate, 250 μM ATP, 250 μM NADH.
Where [4] appears, read: read-out: ACL-ADP-Glo (IC50), 3 nM ACL, 15 μM ATP, 3 μM CoA, 300 μM Citrate.

Consider `COc1c(Cl)cc(Cl)cc1S(=O)(=O)Nc1cc(-c2cc3ccccc3s2)ccc1C(=O)O` [I-297, 4-(benzo[b]thiophen-2-yl)-2-((3,5-dichloro-2-methoxyphenyl)sulfonamido)benzoic Acid], for which the IC50 is 500 to 30000 nM against ACL [1] and 500 to 20000 nM against ACL [2].

Turning to `O=C(O)c1ccc(-c2ccccc2)cc1NS(=O)(=O)Cc1ccc(C(F)(F)F)cc1` [I-299, 3-(((4-(trifluoromethyl)phenyl)methyl)sulfonamido)-[1,1′-biphenyl]-4-carboxylic acid], the figures for the IC50 on ACL [1] and against ACL [2] were 500 to 30000 nM and 500 to 20000 nM, respectively.

As to `O=C(O)c1ccc(-c2ccccc2)cc1NS(=O)(=O)Cc1cc(Cl)cc(Cl)c1` [I-305, 3-(((3,5-dichlorophenyl)methyl)sulfonamido)-[1,1′-biphenyl]-4-carboxylic acid], the half-maximal inhibitory concentration (IC50) against ACL [1] lay in the range of 500 to 30000 nM; against ACL [2] it was 500 to 20000 nM.

As to `O=C(O)c1ccc(-c2ccccc2)cc1NS(=O)(=O)c1cc(Br)cc(C(F)(F)F)c1` [I-306, 3-((3-bromo-5-(trifluoromethyl)phenyl)sulfonamido)-[1,1′-biphenyl]-4-carboxylic acid], the IC50 at ACL [1] and at ACL [2] was 50 to 500 nM each time.

As to `O=C(O)c1ccc(-c2ccccc2)cc1NS(=O)(=O)c1cc(Cl)c(Cl)s1` [I-311, 3-((4,5-dichlorothiophene)-2-sulfonamido)-[1,1′-biphenyl]-4-carboxylic acid], the IC50 on ACL [1] was 500 to 30000 nM; on ACL [2] it was 500 to 20000 nM.

As for `O=C(O)c1occc1NS(=O)(=O)c1cc(Cl)cc(Cl)c1` [I-316, 3-((3,5-dichlorophenyl)sulfonamido)furan-2-carboxylic acid], the IC50 at ACL [1] lay in the range of 500 to 30000 nM; against ACL [2], 500 to 20000 nM.

Consider `O=C(O)c1cc(F)c(-c2ccccc2)cc1NCc1cc(Cl)cc(Cl)c1` [I-317, 5-((3,5-dichlorobenzyl)amino)-2-fluoro-[1,1′-biphenyl]-4-carboxylic Acid], for which the values for the IC50 on ACL [1] and against ACL [2] were 500 to 30000 nM and 500 to 20000 nM, respectively.

Regarding `O=C(O)c1sc(-c2ccc(Cl)cc2)cc1NS(=O)(=O)c1cc(Cl)cc(Cl)c1` [I-322, 5-(4-chlorophenyl)-3-((3,5-dichlorophenyl)sulfonamido)thiophene-2-carboxylic acid], the results for the IC50 against ACL [1] and against ACL [2] were 500 to 30000 nM and 500 to 20000 nM, respectively.

For the molecule `O=c1[nH]cc(Cl)cc1S(=O)(=O)Nc1cc(-c2ccccc2)c(F)cc1F` [I-326, 5-chloro-N-(4,6-difluoro-[1,1′-biphenyl]-3-yl)-2-oxo-1,2-dihydropyridine-3-sulfonamide], the IC50 at ACL [1] (setting [3]) and on ACL [2] (setting [4]) was 50 to 500 nM each time.

In the case of `CC(C)(C)C1CCN(S(=O)(=O)Nc2cc(-c3ccccc3)ccc2C(=O)O)CC1` [I-327], the figures for the IC50 against ACL [1] and at ACL [2] were 500 to 30000 nM and 500 to 20000 nM, respectively.

Regarding `O=C(O)c1ccc(-c2ccccc2)cc1NS(=O)(=O)CC1Cc2ccccc2C1` [I-328], the values for the IC50 against ACL [1] and against ACL [2] were 500 to 30000 nM and 500 to 20000 nM, respectively.

For the molecule `O=C(O)c1ccc(-c2ccccc2)cc1NS(=O)(=O)C1CCC1` [I-329], the IC50 against ACL [1] lay within 500 to 30000 nM; against ACL [2], 500 to 20000 nM.

For `O=C(O)c1ccc(-c2ccccc2)cc1NS(=O)(=O)c1ccnn1CCc1ccccc1` [I-330], the figures for the IC50 on ACL [1] and against ACL [2] were 500 to 30000 nM and 500 to 20000 nM, respectively.

Turning to `O=C(O)c1ccc(-c2ccccc2)cc1NS(=O)(=O)c1cc(Cl)sc1Cl` [I-331], the IC50 was in the range of 500 to 30000 nM against ACL [1] and 500 to 20000 nM on ACL [2].

As to `O=C(O)c1ccc(-c2ccccc2)cc1NS(=O)(=O)c1c(Cl)nc2sccn12` [I-332], the half-maximal inhibitory concentration (IC50) lay in the range of 500 to 30000 nM against ACL [1] and 500 to 20000 nM against ACL [2].

As to `Cc1sc2ccccc2c1S(=O)(=O)Nc1cc(-c2ccccc2)ccc1C(=O)O` [I-333], the results for the IC50 at ACL [1] and against ACL [2] were 500 to 30000 nM and 500 to 20000 nM, respectively.

In the case of `O=C(O)c1ccc(-c2ccccc2)cc1NS(=O)(=O)c1c(Cl)nc2ccc(Br)cn12` [I-334], the figures for the half-maximal inhibitory concentration (IC50) at ACL [1] and against ACL [2] were 500 to 30000 nM and 500 to 20000 nM, respectively.

Regarding `Cc1c(S(=O)(=O)Nc2cc(-c3ccccc3)ccc2C(=O)O)c2ccccc2n1C` [I-335], the IC50 against ACL [1] is 500 to 30000 nM; at ACL [2] it was 500 to 20000 nM.

`O=C(O)c1ccc(-c2ccccc2)cc1NS(=O)(=O)c1ccccc1-c1ccno1` [I-336]: the IC50 against ACL [1] lay within 500 to 30000 nM; at ACL [2] it was 500 to 20000 nM.

As for `CC(=O)N1CCc2cc(Br)c(S(=O)(=O)Nc3cc(-c4ccccc4)ccc3C(=O)O)cc21` [I-338], the IC50 at ACL [1] fell in the range of 500 to 30000 nM; on ACL [2] it was 500 to 20000 nM.

For the molecule `O=C(O)c1ccc(-c2ccccc2)cc1NS(=O)(=O)c1cccc2nonc12` [I-339], the IC50 on ACL [1] fell in the range of 500 to 30000 nM; against ACL [2], 500 to 20000 nM.

With `O=C(O)c1ccc(-c2ccccc2)cc1NS(=O)(=O)N1CCC2(CCCCC2)CC1` [I-340], the IC50 against ACL [1] was 500 to 30000 nM; against ACL [2], 500 to 20000 nM.

For the molecule `CN(C(=O)c1cc(Cl)cc(Cl)c1)c1cc(-c2ccccc2)ccc1C(=O)O` [I-347, 3-(3,5-dichloro-N-methylbenzamido)-[1,1′-biphenyl]-4-carboxylic Acid], the results for the IC50 on ACL [1] and at ACL [2] were 500 to 30000 nM and 500 to 20000 nM, respectively.

With `O=C(O)c1ccc(-c2ccccc2)cc1NS(=O)(=O)c1cc(Cl)c[nH]c1=O` [I-350, 3-((5-chloro-2-oxo-1,2-dihydropyridine)-3-sulfonamido)-[1,1′-biphenyl]-4-carboxylic acid], the values for the IC50 at ACL [1] and at ACL [2] were 500 to 30000 nM and 500 to 20000 nM, respectively.

Consider `O=c1[nH]cc(C(F)(F)F)cc1S(=O)(=O)Nc1cc(-c2ccccc2)ccc1F` [I-355, N-[4-fluoro-[1,1-biphenyl]-3-yl]-2-oxo-5-(trifluoromethyl)-1,2-dihydropyridine-3-sulfonamide], for which the half-maximal inhibitory concentration (IC50) on ACL [1] lay in the range of 500 to 30000 nM; against ACL [2], 50 to 500 nM.

On to `O=C(O)c1ccc(-c2cccs2)cc1NS(=O)(=O)c1cc(Cl)cc(C(F)(F)F)c1` [I-366, 2-((3-chloro-5-(trifluoromethyl)phenyl)sulfonamido)-4-(thiophen-2-yl)benzoic Acid], for which the IC50 against ACL [1] and on ACL [2] was 50 to 500 nM in each case.

With `O=c1[nH]cc(Cl)cc1S(=O)(=O)Nc1cc(-c2cc3ccccc3s2)ccc1F` [I-367, N-(5-(benzo[b]thiophen-2-yl)-2-fluorophenyl)-5-chloro-2-oxo-1,2-dihydropyridine-3-sulfonamide], the results for the IC50 against ACL [1] and against ACL [2] were 500 to 30000 nM and 500 to 20000 nM, respectively.

For `O=S(=O)(Nc1ccoc1)c1cc(Cl)cc(Cl)c1` [I-368, 3,5-dichloro-N-(furan-3-yl)benzenesulfonamide], the results for the IC50 against ACL [1] and against ACL [2] were over 30000 nM and 50 to 500 nM, respectively.

Regarding `COc1ccc(-c2ccccc2)cc1NS(=O)(=O)c1ccc(-c2nn[nH]n2)cc1` [I-407, N-(2-methoxy-5-phenylphenyl)-4-(2H-1,2,3,4-tetrazol-5-yl)benzene-1-sulfonamide], the 50% inhibitory concentration (IC50) against ACL [1] is over 30000 nM; on ACL [2], over 20000 nM.

With `COc1ccc(-c2cc3ccccc3s2)cc1NS(=O)(=O)c1cc(C(=O)N2CCC2)cc(Cl)c1O` [I-503, 5-(azetidine-1-carbonyl)-N-(5-(benzo[b]thiophen-2-yl)-2-methoxyphenyl)-3-chloro-2-hydroxybenzenesulfonamide], the concentration for half-maximal inhibition (IC50) on ACL [1] (setting [3]) and at ACL [2] (setting [4]) was under 50 nM each time.

On to `CCOC(=O)c1cc(Cl)c(O)c(S(=O)(=O)Nc2cc(-c3cc4ccccc4s3)c(F)cc2F)c1` [I-505, ethyl 3-(N-(5-(benzo[b]thiophen-2-yl)-2,4-difluorophenyl)sulfamoyl)-5-chloro-4-hydroxybenzoate], for which the IC50 on ACL [1] (setting [3]) and on ACL [2] (setting [4]) was under 50 nM in each case.

These data come from patent publication US11555012B2 (Nimbus Artemis, Inc., priority 2018, dated 2023).
